Test results taken from ChEMBL document CHEMBL1201862, “PubChem BioAssay data set” (2004).
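These data come from cells grown in 96-well plates and exposed to compound for 48 hours at five concentrations. At the GI50, growth is halved.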 The source made the active and inactive calls. No stated cut-off is given here; in the data, active = GI50 up to about 1.1 µM and inactive = higher.

Legend:
Assay in all cases: NCI anticancer screen, dose series, 48 h
HCC 2998 = test system: HCC 2998
MDA-N = test system: MDA-N
IGROV-1 = test system: IGROV-1
SK-MEL-2 = test system: SK-MEL-2
U-251 = test system: U-251
TK-10 = test system: TK-10
EKVX = test system: EKVX
HCT-15 = test system: HCT-15
NCI-H460 = test system: NCI-H460
SK-MEL-28 = test system: SK-MEL-28
CAKI-1 = test system: CAKI-1
MDA-MB-231 = test system: MDA-MB-231
HCT-116 = test system: HCT-116
Malme-3M = test system: Malme-3M
OVCAR-5 = test system: OVCAR-5
SF-268 = test system: SF-268
RPMI-8226 = test system: RPMI-8226
CCRF-CEM = test system: CCRF-CEM
BT-549 = test system: BT-549
RXF 393 = test system: RXF 393
OVCAR-4 = test system: OVCAR-4
MOLT-4 = test system: MOLT-4
SW-620 = test system: SW-620
HOP-62 = test system: HOP-62
OVCAR-3 = test system: OVCAR-3
SNB-19 = test system: SNB-19
UACC-62 = test system: UACC-62
UACC-257 = test system: UACC-257
UO-31 = test system: UO-31
KM12 = test system: KM12
MCF7 = test system: MCF7
NCI-H23 = test system: NCI-H23
ACHN = test system: ACHN
SK-OV-3 = test system: SK-OV-3
NCI/ADR-RES = test system: NCI/ADR-RES
PC-3 = test system: PC-3
OVCAR-8 = test system: OVCAR-8
SR = test system: SR
T47D = test system: T47D
M14 = test system: M14
MDA-MB-435 = test system: MDA-MB-435
COLO 205 = test system: COLO 205
SN12C = test system: SN12C
HT-29 = test system: HT-29
Hs-578T = test system: Hs-578T
DU-145 = test system: DU-145
K562 = test system: K562
A498 = test system: A498
NCI-H226 = test system: NCI-H226
786-0 = test system: 786-0
SNB-75 = test system: SNB-75
SK-MEL-5 = test system: SK-MEL-5
SF-295 = test system: SF-295
A549 = test system: A549
HOP-92 = test system: HOP-92
LOX IMVI = test system: LOX IMVI
SF-539 = test system: SF-539
HL-60 = test system: HL-60
NCI-H522 = test system: NCI-H522

COC(=O)[C@H](Cc1c[nH]c2ccccc12)NC(=O)c1ccc(CNC(=O)/C=C/c2cccc(Oc3ccccc3)c2)cc1
GI50 (HCC 2998): 89.9 µM (inactive)
GI50 (MDA-N): 5.38 µM (inactive)
GI50 (IGROV-1): > 100 µM (inactive)
GI50 (SK-MEL-2): 18.9 µM (inactive)
GI50 (U-251): > 100 µM (inactive)
GI50 (TK-10): > 100 µM (inactive)
GI50 (EKVX): > 100 µM (inactive)
GI50 (HCT-15): 81.7 µM
GI50 (NCI-H460): 83 µM (inactive)
GI50 (SK-MEL-28): 29.2 µM (inactive)
GI50 (CAKI-1): > 100 µM (inactive)
GI50 (MDA-MB-231): > 100 µM (inactive)
GI50 (HCT-116): > 100 µM (inactive)
GI50 (Malme-3M): 22.8 µM (inactive)
GI50 (OVCAR-5): > 100 µM (inactive)
GI50 (SF-268): > 100 µM (inactive)
GI50 (RPMI-8226): 62.4 µM (inactive)
GI50 (CCRF-CEM): 56.1 µM (inactive)
GI50 (BT-549): 39.9 µM (inactive)
GI50 (RXF 393): 7.73 µM (inactive)
GI50 (OVCAR-4): 19.5 µM (inactive)
GI50 (MOLT-4): 9.06 µM (inactive)
GI50 (SW-620): > 100 µM (inactive)
GI50 (HOP-62): > 100 µM (inactive)
GI50 (OVCAR-3): > 100 µM (inactive)
GI50 (SNB-19): 91.6 µM (inactive)
GI50 (UACC-62): 36.1 µM (inactive)
GI50 (UACC-257): 15.7 µM (inactive)
GI50 (UO-31): > 100 µM (inactive)
GI50 (KM12): > 100 µM (inactive)
GI50 (MCF7): > 100 µM (inactive)
GI50 (NCI-H23): 52.6 µM (inactive)
GI50 (ACHN): > 100 µM (inactive)
GI50 (SK-OV-3): > 100 µM (inactive)
GI50 (NCI/ADR-RES): > 100 µM (inactive)
GI50 (PC-3): > 100 µM (inactive)
GI50 (OVCAR-8): > 100 µM (inactive)
GI50 (SR): 22.4 µM (inactive)
GI50 (T47D): > 100 µM (inactive)
GI50 (M14): 23.2 µM (inactive)
GI50 (MDA-MB-435): 5.7 µM (inactive)
GI50 (COLO 205): > 100 µM (inactive)
GI50 (SN12C): > 100 µM (inactive)
GI50 (HT-29): > 100 µM (inactive)
GI50 (Hs-578T): 34.7 µM (inactive)
GI50 (DU-145): > 100 µM (inactive)
GI50 (K562): 63.5 µM (inactive)
GI50 (A498): > 100 µM (inactive)
GI50 (NCI-H226): > 100 µM (inactive)
GI50 (786-0): > 100 µM (inactive)
GI50 (SNB-75): 79.1 µM (inactive)
GI50 (SK-MEL-5): 30.3 µM (inactive)
GI50 (SF-295): > 100 µM (inactive)
GI50 (A549): 92.9 µM (inactive)
GI50 (HOP-92): 20.2 µM (inactive)

O=C(/C(=C(/Br)I)c1ccccc1)c1ccccc1
GI50 (HCC 2998): 13.6 µM (inactive)
GI50 (MDA-N): 28.5 µM (inactive)
GI50 (IGROV-1): 29.7 µM (inactive)
GI50 (U-251): 25.8 µM (inactive)
GI50 (TK-10): 27.2 µM (inactive)
GI50 (EKVX): 29 µM (inactive)
GI50 (HCT-15): 25.1 µM
GI50 (NCI-H460): 19.1 µM (inactive)
GI50 (CAKI-1): 38.5 µM (inactive)
GI50 (MDA-MB-231): 25.5 µM (inactive)
GI50 (HCT-116): 16 µM (inactive)
GI50 (Malme-3M): 14.5 µM (inactive)
GI50 (OVCAR-5): 48.6 µM (inactive)
GI50 (SF-268): 22.1 µM (inactive)
GI50 (RPMI-8226): 7.1 µM (inactive)
GI50 (CCRF-CEM): 5.56 µM (inactive)
GI50 (BT-549): 22.9 µM (inactive)
GI50 (RXF 393): 16.8 µM (inactive)
GI50 (MOLT-4): 15.2 µM (inactive)
GI50 (OVCAR-3): 21.4 µM (inactive)
GI50 (SNB-19): 38.2 µM (inactive)
GI50 (UACC-62): 18.4 µM (inactive)
GI50 (LOX IMVI): 13.9 µM (inactive)
GI50 (UACC-257): 17.8 µM (inactive)
GI50 (UO-31): 22.7 µM (inactive)
GI50 (KM12): 19.5 µM (inactive)
GI50 (MCF7): 30.9 µM (inactive)
GI50 (NCI-H23): 50.4 µM (inactive)
GI50 (ACHN): 29.4 µM (inactive)
GI50 (SK-OV-3): 38.5 µM (inactive)
GI50 (NCI/ADR-RES): 16.8 µM (inactive)
GI50 (PC-3): 28.6 µM (inactive)
GI50 (OVCAR-8): 23.5 µM (inactive)
GI50 (SR): 27 µM (inactive)
GI50 (T47D): 22.6 µM (inactive)
GI50 (M14): 16.3 µM (inactive)
GI50 (MDA-MB-435): 28.8 µM (inactive)
GI50 (COLO 205): 17.6 µM (inactive)
GI50 (SN12C): 17.8 µM (inactive)
GI50 (HT-29): 17.9 µM (inactive)
GI50 (SF-539): 17.2 µM (inactive)
GI50 (Hs-578T): 40.1 µM (inactive)
GI50 (HL-60): 28 µM (inactive)
GI50 (DU-145): 14.3 µM (inactive)
GI50 (K562): 14.4 µM (inactive)
GI50 (A498): 15 µM (inactive)
GI50 (NCI-H226): 19.3 µM (inactive)
GI50 (786-0): 18.2 µM (inactive)
GI50 (SNB-75): 26.3 µM (inactive)
GI50 (SK-MEL-5): 14.6 µM (inactive)
GI50 (SF-295): 27.2 µM (inactive)
GI50 (A549): 26.9 µM (inactive)
GI50 (HOP-92): 18.8 µM (inactive)

CC(C)(C)c1c2c(c(C(C)(C)C)c3c1OCN(Cc1ccccc1)C3)OCN(Cc1ccccc1)C2
GI50 (HCC 2998): 10.5 µM (inactive)
GI50 (MDA-N): 11.7 µM (inactive)
GI50 (IGROV-1): 21 µM (inactive)
GI50 (SK-MEL-2): 16.6 µM (inactive)
GI50 (U-251): 14.8 µM (inactive)
GI50 (TK-10): 15 µM (inactive)
GI50 (EKVX): 12.7 µM (inactive)
GI50 (HCT-15): 16.5 µM
GI50 (NCI-H460): 15.1 µM (inactive)
GI50 (SK-MEL-28): 29.6 µM (inactive)
GI50 (CAKI-1): 33.2 µM (inactive)
GI50 (MDA-MB-231): 15.5 µM (inactive)
GI50 (HCT-116): 11.3 µM (inactive)
GI50 (Malme-3M): 18.7 µM (inactive)
GI50 (OVCAR-5): 13.4 µM (inactive)
GI50 (SF-268): 16.2 µM (inactive)
GI50 (RPMI-8226): 8.69 µM (inactive)
GI50 (NCI-H522): 10.9 µM (inactive)
GI50 (CCRF-CEM): 28 µM (inactive)
GI50 (BT-549): 16.9 µM (inactive)
GI50 (RXF 393): 14.7 µM (inactive)
GI50 (OVCAR-4): 44.7 µM (inactive)
GI50 (MOLT-4): 18.2 µM (inactive)
GI50 (SW-620): 24.5 µM (inactive)
GI50 (HOP-62): 18.9 µM (inactive)
GI50 (OVCAR-3): 14 µM (inactive)
GI50 (SNB-19): 11 µM (inactive)
GI50 (UACC-62): 17.7 µM (inactive)
GI50 (LOX IMVI): 16.3 µM (inactive)
GI50 (UACC-257): 12.8 µM (inactive)
GI50 (UO-31): 17.2 µM (inactive)
GI50 (KM12): 21.3 µM (inactive)
GI50 (MCF7): 11 µM (inactive)
GI50 (NCI-H23): 12.9 µM (inactive)
GI50 (ACHN): 17.8 µM (inactive)
GI50 (SK-OV-3): 22.6 µM (inactive)
GI50 (NCI/ADR-RES): 19.6 µM (inactive)
GI50 (PC-3): 16.6 µM (inactive)
GI50 (OVCAR-8): 26.2 µM (inactive)
GI50 (SR): 18.9 µM (inactive)
GI50 (T47D): 31.7 µM (inactive)
GI50 (M14): 14.2 µM (inactive)
GI50 (MDA-MB-435): 28.5 µM (inactive)
GI50 (COLO 205): 13.7 µM (inactive)
GI50 (SN12C): 15.4 µM (inactive)
GI50 (HT-29): 16.7 µM (inactive)
GI50 (SF-539): 16 µM (inactive)
GI50 (Hs-578T): 20.4 µM (inactive)
GI50 (DU-145): 22.6 µM (inactive)
GI50 (K562): 17.6 µM (inactive)
GI50 (A498): 6 µM (inactive)
GI50 (786-0): 12.9 µM (inactive)
GI50 (SNB-75): 37.2 µM (inactive)
GI50 (SK-MEL-5): 8.87 µM (inactive)
GI50 (SF-295): 15.2 µM (inactive)
GI50 (A549): 17.6 µM (inactive)
GI50 (HOP-92): 12 µM (inactive)
